In patent US12077503B2, “Substituted cyclic amides and their use as herbicides” (FMC CORPORATION, priority 2015, dated 2024):

Legend:
Type in all cases: in vivo
[1] = system: ryegrass, Italian (Italian ryegrass, Lolium multiflorum); experiment: Test A preemergence; conditions: for Plant response rating, Ryegrass, Italian: 125 g ai/ha; for Ryegrass, Italian plant response rating (0 to 100 scale, 0 is no effect, 100 is complete control): visual injury approx. 10 d
Excerpt: (§1) Seeds of plant species selected from barnyardgrass (Echinochloa crus-galli), Kochia (Kochia scoparia), ragweed (common ragweed, Ambrosia elatior), ryegrass, Italian (Italian ryegrass, Lolium multiflorum), crabgrass, large (Digitaria sanguinalis), giant foxtail (Setaria faberii), green foxtail (Setaria viridis), morningglory (Ipomoea spp.), pigweed (Amaranthus retroflexus), velvetleaf (Abutilon theophrasti), wheat (Triticum aestivum), and corn (Zea mays) were planted into a blend of loam soil and sand and treated preemergence with a directed soil spray using test chemicals formulated in anon-phytotoxic solvent mixture which included a surfactant.
(§2) At the same time, plants selected from these crop and weed species and also blackgrass (Alopecurus myosuroides), and Galium (catchweed bedstraw, Galium aparine) were planted in pots containing the same blend of loam soil and sand and treated with postemergence applications of test chemicals formulated in the same manner. Plants ranged in height from 2 to 10 cm and were in the one- to two-leaf stage for the postemergence treatment. Treated plants and untreated controls were maintained in a greenhouse for approximately 10 d, after which time all treated plants were compared to untreated controls and visually evaluated for injury. Plant response ratings, summarized in Table A, are based on a 0 to 100 scale where 0 is no effect and 100 is complete control. A dash (-) response means no test result.

[2] = system: ragweed (common ragweed, Ambrosia elatior); experiment: Test A preemergence; conditions: for Plant response rating, Ragweed: 125 g ai/ha; for Ragweed plant response rating (0 to 100 scale, 0 is no effect, 100 is complete control): visual injury approx. 10 d
Excerpt: as §1, §2

[3] = system: giant foxtail (Setaria faberii); experiment: Test A preemergence; conditions: for Plant response rating, Foxtail, Giant: 125 g ai/ha; for Foxtail, Giant plant response rating (0 to 100 scale, 0 is no effect, 100 is complete control): visual injury approx. 10 d
Excerpt: as §1, §2

[4] = system: barnyardgrass (Echinochloa crus-galli); experiment: Test A preemergence; conditions: for Plant response rating, Barnyardgrass: 125 g ai/ha; for Barnyardgrass plant response rating (0 to 100 scale, 0 is no effect, 100 is complete control): visual injury approx. 10 d
Excerpt: as §1, §2

[5] = system: pigweed (Amaranthus retroflexus); experiment: Test A preemergence; conditions: for Plant response rating, Pigweed: 125 g ai/ha; for Pigweed plant response rating (0 to 100 scale, 0 is no effect, 100 is complete control): visual injury approx. 10 d
Excerpt: as §1, §2

Kochia (Kochia scoparia) [6] = experiment: Test A preemergence; conditions: for Plant response rating, Kochia: 125 g ai/ha; for Kochia plant response rating (0 to 100 scale, 0 is no effect, 100 is complete control): visual injury approx. 10 d
Excerpt: as §1, §2

[7] = system: Galium (catchweed bedstraw, Galium aparine); experiment: Test A postemergence
Excerpt: as §1, §2

[8] = system: ryegrass, Italian (Italian ryegrass, Lolium multiflorum); experiment: Test A postemergence
Excerpt: as §1, §2

[9] = system: ragweed (common ragweed, Ambrosia elatior); experiment: Test A postemergence
Excerpt: as §1, §2

[10] = system: wheat (Triticum aestivum); experiment: Test A postemergence
Excerpt: as §1, §2

[11] = system: giant foxtail (Setaria faberii); experiment: Test A postemergence
Excerpt: as §1, §2

[12] = system: barnyardgrass (Echinochloa crus-galli); experiment: Test A postemergence
Excerpt: as §1, §2

[13] = system: blackgrass (Alopecurus myosuroides); experiment: Test A postemergence
Excerpt: as §1, §2

corn (Zea mays) = experiment: Test A postemergence
Excerpt: as §1, §2

[14] = system: pigweed (Amaranthus retroflexus); experiment: Test A postemergence
Excerpt: as §1, §2

Kochia (Kochia scoparia) [15] = experiment: Test A postemergence
Excerpt: as §1, §2

[16] = Preemergence, visual injury after approximately 10 d, 0 to 100 scale where 0 is no effect and 100 is complete control
[17] = 125 g ai/ha, postemergence, visual rating after approx. 10 d, 0 to 100 scale (0 no effect, 100 complete control)
[18] = Postemergence, 500 g ai/ha, 0 to 100 scale where 0 is no effect and 100 is complete control
[19] = preemergence, 0 to 100 scale (0 no effect, 100 complete control)
[20] = Preemergence, 500 g ai/ha, 0 is no effect, 100 is complete control
[21] = 125 g ai/ha, postemergence, visual injury rating on 0 to 100 scale (0 no effect, 100 complete control), approx. 10 d
[22] = 500 g ai/ha, postemergence, 0 to 100 scale, 0 no effect, 100 complete control
[23] = Postemergence, 125 g ai/ha, visual injury, 0 to 100 scale (0 no effect, 100 complete control), approx. 10 d

CN1CC(c2cccc(C(F)(F)F)c2)C(C(=O)Nc2ccccc2[N+](=O)[O-])C1=O (stereo not drawn) [Compound 572]
Plant response rating, Ryegrass, Italian [1, 16]: 50 | Ryegrass, Italian plant response rating (0 to 100 scale, 0 is no effect, 100 is complete control) ([1]; Preemergence, 500 g ai/ha): 50 | Plant response rating, Ragweed [2, 16]: 0 | Ragweed plant response rating (0 to 100 scale, 0 is no effect, 100 is complete control) ([2]; Preemergence, 500 g ai/ha): 50 | Plant response rating, Foxtail, Giant [3, 16]: 90 | Foxtail, Giant plant response rating (0 to 100 scale, 0 is no effect, 100 is complete control) ([3]; Preemergence, 500 g ai/ha): 90 | Plant response rating, Barnyardgrass [4, 16]: 90 | Barnyardgrass plant response rating (0 to 100 scale, 0 is no effect, 100 is complete control) ([4]; Preemergence, 500 g ai/ha): 90 | Plant response rating, Pigweed [5, 16]: 40 | Pigweed plant response rating (0 to 100 scale, 0 is no effect, 100 is complete control) ([5]; Preemergence, 500 g ai/ha): 80 | Plant response rating, Kochia (Kochia (Kochia scoparia) [6]; [16]): 70 | Kochia plant response rating (0 to 100 scale, 0 is no effect, 100 is complete control) (Kochia (Kochia scoparia) [6]; Preemergence, 500 g ai/ha): 80 | Plant response rating, Galium [7, 17]: 50 | Plant response rating, Galium [7, 18]: 60 | Plant response rating, Ryegrass, Italian [8, 17]: 30 | Plant response rating, Ryegrass, Italian [8, 18]: 60 | Plant response rating, Ragweed [9, 17]: 0 | Plant response rating, Ragweed [9, 18]: 20 | Plant response rating, Wheat [10, 17]: 60 | Plant response rating, Wheat [10, 18]: 70 | Plant response rating, Foxtail, Giant [11, 17]: 90 | Plant response rating, Foxtail, Giant [11, 18]: 90 | Plant response rating, Barnyardgrass [12, 17]: 90 | Plant response rating, Barnyardgrass [12, 18]: 90 | Plant response rating, Blackgrass [13, 17]: 70 | Plant response rating, Blackgrass [13, 18]: 80 | Plant response rating, Corn (corn (Zea mays); [17]): 60 | Plant response rating, Corn (corn (Zea mays); [18]): 80 | Plant response rating, Pigweed [14, 17]: 30 | Plant response rating, Pigweed [14, 18]: 40 | Plant response rating, Kochia (Kochia (Kochia scoparia) [15]; [17]): 20 | Plant response rating, Kochia (Kochia (Kochia scoparia) [15]; [18]): 60

CN1CC(c2ccc(Br)cc2)C(C(=O)Nc2ccc(F)cc2F)C1=O (stereo not drawn) [Compound 566]
Plant response rating, Ryegrass, Italian [1, 16]: 20 | Ryegrass, Italian plant response rating (0 to 100 scale, 0 is no effect, 100 is complete control) ([1]; Preemergence, 500 g ai/ha): 70 | Plant response rating, Ragweed [2, 16]: 60 | Ragweed plant response rating (0 to 100 scale, 0 is no effect, 100 is complete control) ([2]; Preemergence, 500 g ai/ha): 90 | Plant response rating, Foxtail, Giant [3, 16]: 90 | Foxtail, Giant plant response rating (0 to 100 scale, 0 is no effect, 100 is complete control) ([3]; Preemergence, 500 g ai/ha): 100 | Plant response rating, Barnyardgrass [4, 16]: 90 | Barnyardgrass plant response rating (0 to 100 scale, 0 is no effect, 100 is complete control) ([4]; Preemergence, 500 g ai/ha): 100 | Plant response rating, Pigweed [5, 16]: 80 | Pigweed plant response rating (0 to 100 scale, 0 is no effect, 100 is complete control) ([5]; Preemergence, 500 g ai/ha): 90 | Plant response rating, Kochia (Kochia (Kochia scoparia) [6]; [16]): 70 | Kochia plant response rating (0 to 100 scale, 0 is no effect, 100 is complete control) (Kochia (Kochia scoparia) [6]; Preemergence, 500 g ai/ha): 80 | Plant response rating, Galium [7, 17]: 60 | Plant response rating, Galium [7, 18]: 80 | Plant response rating, Ryegrass, Italian [8, 17]: 30 | Plant response rating, Ryegrass, Italian [8, 18]: 60 | Plant response rating, Ragweed [9, 17]: 0 | Plant response rating, Ragweed [9, 18]: 40 | Plant response rating, Wheat [10, 17]: 0 | Plant response rating, Wheat [10, 18]: 40 | Plant response rating, Foxtail, Giant [11, 17]: 90 | Plant response rating, Foxtail, Giant [11, 18]: 90 | Plant response rating, Barnyardgrass [12, 17]: 90 | Plant response rating, Barnyardgrass [12, 18]: 90 | Plant response rating, Blackgrass [13, 17]: 20 | Plant response rating, Blackgrass [13, 18]: 70 | Plant response rating, Corn (corn (Zea mays); [17]): 0 | Plant response rating, Corn (corn (Zea mays); [18]): 40 | Plant response rating, Pigweed [14, 17]: 30 | Plant response rating, Pigweed [14, 18]: 60 | Plant response rating, Kochia (Kochia (Kochia scoparia) [15]; [17]): 80 | Plant response rating, Kochia (Kochia (Kochia scoparia) [15]; [18]): 80

O=C1NCC(c2cccc(O)c2)C1C(=O)Nc1cccc(F)c1F (racemic) [Compound 384]
Plant response rating, Ryegrass, Italian [1, 19]: 0 | Ryegrass, Italian plant response rating (0 to 100 scale) [1, 20]: 0 | Plant response rating, Ragweed [2, 19]: 0 | Ragweed plant response rating (0 to 100 scale) [2, 20]: 0 | Plant response rating, Foxtail, Giant [3, 19]: 0 | Foxtail, Giant plant response rating (0 to 100 scale) [3, 20]: 0 | Plant response rating, Barnyardgrass [4, 19]: 0 | Barnyardgrass plant response rating (0 to 100 scale) [4, 20]: 0 | Plant response rating, Pigweed [5, 19]: 0 | Pigweed plant response rating (0 to 100 scale) [5, 20]: 0 | Plant response rating, Kochia (Kochia (Kochia scoparia) [6]; [19]): 0 | Kochia plant response rating (0 to 100 scale) (Kochia (Kochia scoparia) [6]; [20]): 0 | Galium plant response rating [7, 21]: 0 | Plant response rating, Galium [7, 22]: 0 | Ryegrass, Italian plant response rating [8, 21]: 0 | Plant response rating, Ryegrass, Italian [8, 22]: 0 | Ragweed plant response rating [9, 21]: 0 | Plant response rating, Ragweed [9, 22]: 0 | Wheat plant response rating [10, 21]: 0 | Plant response rating, Wheat [10, 22]: 0 | Foxtail, Giant plant response rating [11, 21]: 0 | Plant response rating, Foxtail, Giant [11, 22]: 0 | Plant response rating, Barnyardgrass [12, 22]: 0 | Plant response rating, Barnyardgrass [12, 23]: 0 | Plant response rating, Blackgrass [13, 22]: 0 | Plant response rating, Blackgrass [13, 23]: 0 | Corn plant response rating (corn (Zea mays); [21]): 0 | Plant response rating, Corn (corn (Zea mays); [22]): 0 | Pigweed plant response rating [14, 21]: 0 | Plant response rating, Pigweed [14, 22]: 0 | Kochia plant response rating (Kochia (Kochia scoparia) [15]; [21]): 0 | Plant response rating, Kochia (Kochia (Kochia scoparia) [15]; [22]): 0
